Laboratory results reported in ChEMBL document CHEMBL3046407, “Toxicity of monoterpenes against larvae and adults of Colorado potato beetle, Leptinotarsa decemlineata Say (Coleoptera: Chrysomelidae)” (2007).

Experiments:
Type in all cases: functional
[1] = tested on: Leptinotarsa decemlineata; assay: Insecticidal activity against second-instar larval stage of Leptinotarsa decemlineata infested potato leaves assessed as mortality at 20 ul after 96 hr (reference value: […] +/- 3.3%)
[2] = tested on: Leptinotarsa decemlineata; assay: Insecticidal activity against second-instar larval stage of Leptinotarsa decemlineata infested potato leaves assessed as mortality at 20 ul after 48 hr (reference value: […] +/- 3.3%)
[3] = tested on: Leptinotarsa decemlineata; assay: Insecticidal activity against second-instar larval stage of Leptinotarsa decemlineata infested potato leaves assessed as mortality at 20 ul after 24 hr (reference value: […] +/- 3.3%)
[4] = tested on: Leptinotarsa decemlineata; assay: Insecticidal activity against second-instar larval stage of Leptinotarsa decemlineata infested potato leaves assessed as mortality at 10 ul after 12 hr relative to control
[5] = tested on: Leptinotarsa decemlineata; assay: Insecticidal activity against adult Leptinotarsa decemlineata infested potato leaves assessed as mortality at 20 ul after 96 hr relative to control
[6] = tested on: Leptinotarsa decemlineata; assay: Insecticidal activity against adult Leptinotarsa decemlineata infested potato leaves assessed as mortality at 20 ul after 48 hr relative to control
[7] = tested on: Leptinotarsa decemlineata; assay: Insecticidal activity against adult Leptinotarsa decemlineata infested potato leaves assessed as mortality at 20 ul after 24 hr relative to control
[8] = tested on: Leptinotarsa decemlineata; assay: Insecticidal activity against adult Leptinotarsa decemlineata infested potato leaves assessed as mortality at 20 ul after 12 hr relative to control
[9] = tested on: Leptinotarsa decemlineata; assay: Insecticidal activity against adult Leptinotarsa decemlineata infested potato leaves assessed as mortality at 10 ul after 96 hr relative to control
[10] = tested on: Leptinotarsa decemlineata; assay: Insecticidal activity against adult Leptinotarsa decemlineata infested potato leaves assessed as mortality at 10 ul after 48 hr relative to control
[11] = tested on: Leptinotarsa decemlineata; assay: Insecticidal activity against adult Leptinotarsa decemlineata infested potato leaves assessed as mortality at 10 ul after 24 hr relative to control
[12] = tested on: Leptinotarsa decemlineata; assay: Insecticidal activity against adult Leptinotarsa decemlineata infested potato leaves assessed as mortality at 10 ul after 12 hr relative to control
[13] = tested on: Leptinotarsa decemlineata; assay: Insecticidal activity against second-instar larval stage of Leptinotarsa decemlineata infested potato leaves assessed as mortality at 20 ul after 12 hr relative to control
[14] = tested on: Leptinotarsa decemlineata; assay: Insecticidal activity against second-instar larval stage of Leptinotarsa decemlineata infested potato leaves assessed as mortality at 10 ul after 96 hr (reference value: […] +/- 3.3%)
[15] = tested on: Leptinotarsa decemlineata; assay: Insecticidal activity against second-instar larval stage of Leptinotarsa decemlineata infested potato leaves assessed as mortality at 10 ul after 48 hr (reference value: […] +/- 3.3%)
[16] = tested on: Leptinotarsa decemlineata; assay: Insecticidal activity against second-instar larval stage of Leptinotarsa decemlineata infested potato leaves assessed as mortality at 10 ul after 24 hr (reference value: […] +/- 3.3%)
[17] = tested on: Leptinotarsa decemlineata; assay: Insecticidal activity against first-instar larval stage of Leptinotarsa decemlineata infested potato leaves assessed as mortality at 20 ul after 96 hr relative to control
[18] = tested on: Leptinotarsa decemlineata; assay: Insecticidal activity against first-instar larval stage of Leptinotarsa decemlineata infested potato leaves assessed as mortality at 20 ul after 48 hr relative to control
[19] = tested on: Leptinotarsa decemlineata; assay: Insecticidal activity against first-instar larval stage of Leptinotarsa decemlineata infested potato leaves assessed as mortality at 20 ul after 24 hr relative to control
[20] = tested on: Leptinotarsa decemlineata; assay: Insecticidal activity against first-instar larval stage of Leptinotarsa decemlineata infested potato leaves assessed as mortality at 20 ul after 12 hr relative to control
[21] = tested on: Leptinotarsa decemlineata; assay: Insecticidal activity against first-instar larval stage of Leptinotarsa decemlineata infested potato leaves assessed as mortality at 10 ul after 96 hr relative to control
[22] = tested on: Leptinotarsa decemlineata; assay: Insecticidal activity against first-instar larval stage of Leptinotarsa decemlineata infested potato leaves assessed as mortality at 10 ul after 48 hr relative to control
[23] = tested on: Leptinotarsa decemlineata; assay: Insecticidal activity against first-instar larval stage of Leptinotarsa decemlineata infested potato leaves assessed as mortality at 10 ul after 12 hr relative to control
[24] = tested on: Leptinotarsa decemlineata; assay: Insecticidal activity against first-instar larval stage of Leptinotarsa decemlineata infested potato leaves assessed as mortality at 10 ul after 24 hr relative to control
[25] = tested on: Leptinotarsa decemlineata; assay: Insecticidal activity against third-instar larval stage of Leptinotarsa decemlineata infested potato leaves assessed as mortality at 20 ul after 96 hr (reference value: […] +/- 3.3%)
[26] = tested on: Leptinotarsa decemlineata; assay: Insecticidal activity against third-instar larval stage of Leptinotarsa decemlineata infested potato leaves assessed as mortality at 20 ul after 48 hr (reference value: […] +/- 3.3%)
[27] = tested on: Leptinotarsa decemlineata; assay: Insecticidal activity against third-instar larval stage of Leptinotarsa decemlineata infested potato leaves assessed as mortality at 20 ul after 24 hr relative to control
[28] = tested on: Leptinotarsa decemlineata; assay: Insecticidal activity against third-instar larval stage of Leptinotarsa decemlineata infested potato leaves assessed as mortality at 20 ul after 12 hr relative to control
[29] = tested on: Leptinotarsa decemlineata; assay: Insecticidal activity against third-instar larval stage of Leptinotarsa decemlineata infested potato leaves assessed as mortality at 10 ul after 96 hr (reference value: […] +/- 3.3%)
[30] = tested on: Leptinotarsa decemlineata; assay: Insecticidal activity against third-instar larval stage of Leptinotarsa decemlineata infested potato leaves assessed as mortality at 10 ul after 48 hr (reference value: […] +/- 3.3%)
[31] = tested on: Leptinotarsa decemlineata; assay: Insecticidal activity against third-instar larval stage of Leptinotarsa decemlineata infested potato leaves assessed as mortality at 10 ul after 24 hr relative to control
[32] = tested on: Leptinotarsa decemlineata; assay: Insecticidal activity against third-instar larval stage of Leptinotarsa decemlineata infested potato leaves assessed as mortality at 10 ul after 12 hr relative to control

SMILES | mortality [1] | mortality [2] | mortality [3] | mortality [4] | mortality [5] | mortality [6] | mortality [8] | mortality [9] | mortality [10] | mortality [11] | mortality [12] | mortality [13] | mortality [14] | mortality [15] | mortality [16] | mortality [17] | mortality [18] | mortality [19] | mortality [20] | mortality [21] | further results
C=C(C)C1CCC2(C)OC2C1 (configuration not stated) [LIMONENE OXIDE] | 96.7% | 93.3% | 93.3% | 30% | 56.7% | 40% | 16.7% | 30% | 20% | 16.7% | 10% | 60% | 90% | 83.3% | 73.3% | 100% | 100% | 93.3% | 70% | 93.3% | mortality [7]: 20%; mortality [22]: 80%; mortality [23]: 26.7%; mortality [24]: 53.3%; mortality [25]: 56.7%; mortality [26]: 46.7%; mortality [27]: 33.3%; mortality [28]: 13.3%; mortality [29]: 46.7%; mortality [30]: 43.3%; mortality [31]: 23.3%; mortality [32]: 13.3%
C=C(C)C1CC=C(C)C(=O)C1 (configuration not stated) [CARVONE] | 90% | 86.7% | 83.3% | 33.3% | 100% | 100% | 3.3% | 93.3% | 66.7% | 26.7% | 0% | 53.3% | 63.3% | 63.3% | 53.3% | 56.7% | 43.3% | 30% | 10% | 63.3% | mortality [7]: 36.7%; mortality [22]: 43.3%; mortality [23]: 16.7%; mortality [24]: 43.3%; mortality [25]: 90%; mortality [26]: 90%; mortality [27]: 86.7%; mortality [28]: 23.3%; mortality [29]: 16.7%; mortality [30]: 13.3%; mortality [31]: 13.3%; mortality [32]: 6.7%
CC1=CCC2CC1C2(C)C (stereo not drawn) [ALPHA-PINENE] | 86.7% | 80% | 70% | 26.7% | 100% | 100% | 96.7% | 100% | 100% | 100% | 100% | 20% | 66.7% | 63.3% | 50% | 66.7% | 56.7% | 43.3% | 13.3% | 66.7% | mortality [7]: 100%; mortality [22]: 63.3%; mortality [23]: 26.7%; mortality [24]: 50%; mortality [25]: 36.7%; mortality [26]: 30%; mortality [27]: 16.7%; mortality [28]: 13.3%; mortality [29]: 6.7%; mortality [31]: 3.3%; mortality [32]: 3.3%
CC(C)=CCC[C@@H](C)CC=O [CITRONELLAL] | 93.3% | 93.3% | 80% | 20% | 86.7% | 80% | 16.7% | 100% | 100% | 90% | 6.7% | 23.3% | 80% | 76.7% | 53.3% | 100% | 90% | 76.7% | 33.3% | 86.7% | mortality [22]: 76.7%; mortality [23]: 6.7%; mortality [24]: 43.3%; mortality [25]: 33.3%; mortality [26]: 26.7%; mortality [27]: 20%; mortality [28]: 10%; mortality [29]: 26.7%; mortality [30]: 20%; mortality [31]: 20%; mortality [32]: 20%
C=CC(C)(CCC=C(C)C)OC(C)=O (configuration not stated) [LINALYL ACETATE] | 93.3% | 93.3% | 63.3% | 20% | 70% | 63.3% | 10% | 23.3% | 16.7% | 0% | 0% | 30% | 86.7% | 80% | 36.7% | 69.3% | 93.3% | 63.3% | 26.7% | 86.7% | mortality [7]: 23.3%; mortality [22]: 70%; mortality [23]: 16.7%; mortality [24]: 30%; mortality [25]: 83.3%; mortality [26]: 76.7%; mortality [27]: 73.3%; mortality [28]: 30%; mortality [29]: 33.3%; mortality [31]: 30%; mortality [32]: 23.3%
